# Measured values reported in patent publication US20230111310A1, “CARBOXYLIC ACID DERIVATIVE-SUBSTITUTED IMINO ARYL COMPOUND, PREPARATION METHOD THEREFOR, HERBICIDAL COMPOSITION AND USE THEREOF” (Qingdao Kingagroot Chemical Compound Co., Ltd., priority 2020, published 2023).
# System: Echinochloa crusgalli
# Assay: Weeding effect in post-emergence stage
# Type: in vivo
# Details: Dose 15 g/ha; level of fresh weight growth control rate
# Summary of the method: (§1)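 Doses of 500, 250, 125, 60, 30, 15 and 7.5 g/ha, with methyl oleate synergist (1.5 liter/ha) and Tween 80 from acetone solution, applied by spray tower post-emergence (2–3 leaf stage). Weed control scored after 3 further greenhouse weeks, averaged over triplicates.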
row,Compound,"Weeding effect in post-emergence stage, Echinochloa crusgalli"
1,COC(=O)C(C)(C)OC(=O)C(C)O/N=C/c1cc(-n2c(=O)cc(C(F)(F)F)n(C)c2=O)c(F)cc1Cl (stereo not drawn) [Compound 243],5 (Level 5: growth control rate is above 85%)
2,CCOC(=O)OC(C)OC(=O)C(C)O/N=C/c1cc(-n2c(=O)cc(C(F)(F)F)n(C)c2=O)c(F)cc1Cl (stereo not drawn) [Compound 246],5 (Level 5: growth control rate is above 85%)
3,CC(C)=NOC(=O)C(C)O/N=C/c1cc(-n2c(=O)cc(C(F)(F)F)n(C)c2=O)c(F)cc1Cl (stereo not drawn) [Compound 248],5 (Level 5: growth control rate is above 85%)
4,CC/C(C)=N/OC(=O)C(C)O/N=C/c1cc(-n2c(=O)cc(C(F)(F)F)n(C)c2=O)c(F)cc1Cl (stereo not drawn) [Compound 249],5 (Level 5: growth control rate is above 85%)
5,C/C(=N\OC(=O)C(C)O/N=C/c1cc(-n2c(=O)cc(C(F)(F)F)n(C)c2=O)c(F)cc1Cl)C(C)C (stereo not drawn) [Compound 250],5 (Level 5: growth control rate is above 85%)
6,CCC(CC)=NOC(=O)C(C)O/N=C/c1cc(-n2c(=O)cc(C(F)(F)F)n(C)c2=O)c(F)cc1Cl (stereo not drawn) [Compound 251],5 (Level 5: growth control rate is above 85%)
7,CCO/C(C)=N/OC(=O)C(C)O/N=C/c1cc(-n2c(=O)cc(C(F)(F)F)n(C)c2=O)c(F)cc1Cl (stereo not drawn) [Compound 252],5 (Level 5: growth control rate is above 85%)

# System: Setaria viridis
# Assay: Weeding effect in post-emergence stage
# Type: in vivo
# Details: Dose 15 g/ha; level of fresh weight growth control rate
# Summary of the method: as §1
row,Compound,"Weeding effect in post-emergence stage, Setaria viridis"
1,COC(=O)C(C)(C)OC(=O)C(C)O/N=C/c1cc(-n2c(=O)cc(C(F)(F)F)n(C)c2=O)c(F)cc1Cl (stereo not drawn) [Compound 243],5 (Level 5: growth control rate is above 85%)
2,CCOC(=O)OC(C)OC(=O)C(C)O/N=C/c1cc(-n2c(=O)cc(C(F)(F)F)n(C)c2=O)c(F)cc1Cl (stereo not drawn) [Compound 246],5 (Level 5: growth control rate is above 85%)
3,CC(C)=NOC(=O)C(C)O/N=C/c1cc(-n2c(=O)cc(C(F)(F)F)n(C)c2=O)c(F)cc1Cl (stereo not drawn) [Compound 248],5 (Level 5: growth control rate is above 85%)
4,CC/C(C)=N/OC(=O)C(C)O/N=C/c1cc(-n2c(=O)cc(C(F)(F)F)n(C)c2=O)c(F)cc1Cl (stereo not drawn) [Compound 249],5 (Level 5: growth control rate is above 85%)
5,C/C(=N\OC(=O)C(C)O/N=C/c1cc(-n2c(=O)cc(C(F)(F)F)n(C)c2=O)c(F)cc1Cl)C(C)C (stereo not drawn) [Compound 250],5 (Level 5: growth control rate is above 85%)
6,CCC(CC)=NOC(=O)C(C)O/N=C/c1cc(-n2c(=O)cc(C(F)(F)F)n(C)c2=O)c(F)cc1Cl (stereo not drawn) [Compound 251],5 (Level 5: growth control rate is above 85%)
7,CCO/C(C)=N/OC(=O)C(C)O/N=C/c1cc(-n2c(=O)cc(C(F)(F)F)n(C)c2=O)c(F)cc1Cl (stereo not drawn) [Compound 252],5 (Level 5: growth control rate is above 85%)

# System: Eleusine indica
# Assay: Weeding effect in post-emergence stage
# Type: in vivo
# Details: Dose 15 g/ha; level of fresh weight growth control rate
# Summary of the method: as §1
row,Compound,"Weeding effect in post-emergence stage, Eleusine indica"
1,COC(=O)C(C)(C)OC(=O)C(C)O/N=C/c1cc(-n2c(=O)cc(C(F)(F)F)n(C)c2=O)c(F)cc1Cl (stereo not drawn) [Compound 243],5 (Level 5: growth control rate is above 85%)
2,CCOC(=O)OC(C)OC(=O)C(C)O/N=C/c1cc(-n2c(=O)cc(C(F)(F)F)n(C)c2=O)c(F)cc1Cl (stereo not drawn) [Compound 246],5 (Level 5: growth control rate is above 85%)
3,CC(C)=NOC(=O)C(C)O/N=C/c1cc(-n2c(=O)cc(C(F)(F)F)n(C)c2=O)c(F)cc1Cl (stereo not drawn) [Compound 248],5 (Level 5: growth control rate is above 85%)
4,CC/C(C)=N/OC(=O)C(C)O/N=C/c1cc(-n2c(=O)cc(C(F)(F)F)n(C)c2=O)c(F)cc1Cl (stereo not drawn) [Compound 249],5 (Level 5: growth control rate is above 85%)
5,C/C(=N\OC(=O)C(C)O/N=C/c1cc(-n2c(=O)cc(C(F)(F)F)n(C)c2=O)c(F)cc1Cl)C(C)C (stereo not drawn) [Compound 250],5 (Level 5: growth control rate is above 85%)
6,CCC(CC)=NOC(=O)C(C)O/N=C/c1cc(-n2c(=O)cc(C(F)(F)F)n(C)c2=O)c(F)cc1Cl (stereo not drawn) [Compound 251],5 (Level 5: growth control rate is above 85%)
7,CCO/C(C)=N/OC(=O)C(C)O/N=C/c1cc(-n2c(=O)cc(C(F)(F)F)n(C)c2=O)c(F)cc1Cl (stereo not drawn) [Compound 252],5 (Level 5: growth control rate is above 85%)

# System: Digitaria sanguinalis
# Assay: Weeding effect in post-emergence stage
# Type: in vivo
# Details: Dose 15 g/ha; level of fresh weight growth control rate
# Summary of the method: as §1
row,Compound,"Weeding effect in post-emergence stage, Digitaria sanguinalis"
1,COC(=O)C(C)(C)OC(=O)C(C)O/N=C/c1cc(-n2c(=O)cc(C(F)(F)F)n(C)c2=O)c(F)cc1Cl (stereo not drawn) [Compound 243],5 (Level 5: growth control rate is above 85%)
2,CCOC(=O)OC(C)OC(=O)C(C)O/N=C/c1cc(-n2c(=O)cc(C(F)(F)F)n(C)c2=O)c(F)cc1Cl (stereo not drawn) [Compound 246],5 (Level 5: growth control rate is above 85%)
3,CC(C)=NOC(=O)C(C)O/N=C/c1cc(-n2c(=O)cc(C(F)(F)F)n(C)c2=O)c(F)cc1Cl (stereo not drawn) [Compound 248],5 (Level 5: growth control rate is above 85%)
4,CC/C(C)=N/OC(=O)C(C)O/N=C/c1cc(-n2c(=O)cc(C(F)(F)F)n(C)c2=O)c(F)cc1Cl (stereo not drawn) [Compound 249],5 (Level 5: growth control rate is above 85%)
5,C/C(=N\OC(=O)C(C)O/N=C/c1cc(-n2c(=O)cc(C(F)(F)F)n(C)c2=O)c(F)cc1Cl)C(C)C (stereo not drawn) [Compound 250],5 (Level 5: growth control rate is above 85%)
6,CCC(CC)=NOC(=O)C(C)O/N=C/c1cc(-n2c(=O)cc(C(F)(F)F)n(C)c2=O)c(F)cc1Cl (stereo not drawn) [Compound 251],5 (Level 5: growth control rate is above 85%)
7,CCO/C(C)=N/OC(=O)C(C)O/N=C/c1cc(-n2c(=O)cc(C(F)(F)F)n(C)c2=O)c(F)cc1Cl (stereo not drawn) [Compound 252],5 (Level 5: growth control rate is above 85%)

# System: Alopecurus japonicus
# Assay: Weeding effect in post-emergence stage
# Type: in vivo
# Details: Dose 15 g/ha; level of fresh weight growth control rate
# Summary of the method: as §1
row,Compound,"Weeding effect in post-emergence stage, Alopecurus japonicus"
1,COC(=O)C(C)(C)OC(=O)C(C)O/N=C/c1cc(-n2c(=O)cc(C(F)(F)F)n(C)c2=O)c(F)cc1Cl (stereo not drawn) [Compound 243],5 (Level 5: growth control rate is above 85%)
2,CCOC(=O)OC(C)OC(=O)C(C)O/N=C/c1cc(-n2c(=O)cc(C(F)(F)F)n(C)c2=O)c(F)cc1Cl (stereo not drawn) [Compound 246],5 (Level 5: growth control rate is above 85%)
3,CC(C)=NOC(=O)C(C)O/N=C/c1cc(-n2c(=O)cc(C(F)(F)F)n(C)c2=O)c(F)cc1Cl (stereo not drawn) [Compound 248],5 (Level 5: growth control rate is above 85%)
4,CC/C(C)=N/OC(=O)C(C)O/N=C/c1cc(-n2c(=O)cc(C(F)(F)F)n(C)c2=O)c(F)cc1Cl (stereo not drawn) [Compound 249],5 (Level 5: growth control rate is above 85%)
5,C/C(=N\OC(=O)C(C)O/N=C/c1cc(-n2c(=O)cc(C(F)(F)F)n(C)c2=O)c(F)cc1Cl)C(C)C (stereo not drawn) [Compound 250],5 (Level 5: growth control rate is above 85%)
6,CCC(CC)=NOC(=O)C(C)O/N=C/c1cc(-n2c(=O)cc(C(F)(F)F)n(C)c2=O)c(F)cc1Cl (stereo not drawn) [Compound 251],5 (Level 5: growth control rate is above 85%)
7,CCO/C(C)=N/OC(=O)C(C)O/N=C/c1cc(-n2c(=O)cc(C(F)(F)F)n(C)c2=O)c(F)cc1Cl (stereo not drawn) [Compound 252],5 (Level 5: growth control rate is above 85%)

# System: Abutilon theophrasti
# Assay: Weeding effect in post-emergence stage
# Type: in vivo
# Details: Dose 15 g/ha; level of fresh weight growth control rate
# Summary of the method: as §1
row,Compound,"Weeding effect in post-emergence stage, Abutilon theophrasti"
1,COC(=O)C(C)(C)OC(=O)C(C)O/N=C/c1cc(-n2c(=O)cc(C(F)(F)F)n(C)c2=O)c(F)cc1Cl (stereo not drawn) [Compound 243],5 (Level 5: growth control rate is above 85%)
2,CCOC(=O)OC(C)OC(=O)C(C)O/N=C/c1cc(-n2c(=O)cc(C(F)(F)F)n(C)c2=O)c(F)cc1Cl (stereo not drawn) [Compound 246],5 (Level 5: growth control rate is above 85%)
3,CC(C)=NOC(=O)C(C)O/N=C/c1cc(-n2c(=O)cc(C(F)(F)F)n(C)c2=O)c(F)cc1Cl (stereo not drawn) [Compound 248],5 (Level 5: growth control rate is above 85%)
4,CC/C(C)=N/OC(=O)C(C)O/N=C/c1cc(-n2c(=O)cc(C(F)(F)F)n(C)c2=O)c(F)cc1Cl (stereo not drawn) [Compound 249],5 (Level 5: growth control rate is above 85%)
5,C/C(=N\OC(=O)C(C)O/N=C/c1cc(-n2c(=O)cc(C(F)(F)F)n(C)c2=O)c(F)cc1Cl)C(C)C (stereo not drawn) [Compound 250],5 (Level 5: growth control rate is above 85%)
6,CCC(CC)=NOC(=O)C(C)O/N=C/c1cc(-n2c(=O)cc(C(F)(F)F)n(C)c2=O)c(F)cc1Cl (stereo not drawn) [Compound 251],5 (Level 5: growth control rate is above 85%)
7,CCO/C(C)=N/OC(=O)C(C)O/N=C/c1cc(-n2c(=O)cc(C(F)(F)F)n(C)c2=O)c(F)cc1Cl (stereo not drawn) [Compound 252],5 (Level 5: growth control rate is above 85%)
